Assay results taken from patent US20040213889A1, “Method for active dry yeast rehydration and rehydration medium” (priority 2001, published 2004).

Key:
Format in all cases: cell-based, Saccharomyces
[1] = system: active dry yeast Uvaferm CEG; experiment: Duration of fermentation of deficient synthetic must MS70-fa with different added nutrients (Example 3); conditions: average of duplicates, control without addition 290
Experimental: 12 fermentations were carried out in parallel and in duplicate on a synthetic must MS70-fa such as described in example 1, and corresponding to a medium deficient in assimilable nitrogen (100 mg/l) and containing 200 g/l of fermentable sugars. The active dry yeast used is the commercial yeast Uvaferm CEG™ inoculated at a dosage of 20 g/hl. The yeast extract is the commercial extract Bacto-yeast extract ref. 0127-01-7 (DIFCO, USA). The vitamins and mineral salts are the standard products available from suppliers.
F1 and 2: Controls in which no yeast extract is added either into the rehydration medium of the yeast or into the fermentation medium. The control rehydration medium is the base medium: water with glucose added at 50 g/l.
F3: Fermentation carried out with the yeast CEG™ rehydrated in the presence of yeast extract (used at a dosage permitting a concentration of 30 g/hl in the must) in the rehydration medium.
F4: Fermentation carried out with the yeast CEG™ rehydrated in a control rehydration medium. The same yeast extract as for F3 is added at the start of alcoholic fermentation directly into the synthetic must MS70-fa in a dosage of 30 g/hl.
F6: Fermentation carried out with the yeast CEG™ rehydrated in a control rehydration medium. […]

[2] = system: active dry yeast Uvaferm CEG; experiment: Industrial fermentation of Airen white wine must in 100 hectolitre vats (Example 7)
Experimental: (§1) The medium M2 containing the composition C2 has been used to rehydrate the ADYs and culture a fermentation must of a white wine in industrial conditions in a cellar in the region of la Mancha in Spain.
(§2) Assimilable Nitrogen in the must: 225 mg/l (non-Deficient must)
(§3) Fermentations have been carried out in 100 hectolitre vats according to different forms, in order to determine the most favourable conditions. Two types of ADY have been used, on their own or in the presence of other substances jointly added to the musts to encourage fermentation. In particular the influence of diammonium phosphate and a fermentation activator, added to the fermentation medium, has been studied.
(§4) The active dry yeasts Uvaferm™ CEG (Lallemand, Canada) and Uvaferm™ PM (Lallemand, Canada) have been rehydrated with the aid of the medium M2 described in example 6. For each of the two yeasts, 4 tests have been carried out, by adding:
(§5) The fermentation activator used is the activator Fermaid™ (Lallemand, Canada).
(§6) The kinetic profile of these eight fermentations was followed by measuring the density of the must and at the level of the production of a secondary component of fermentation, i.e. acetate. Indeed, acetate is responsible for the volatile acidity of wines which should be minimised in order to obtain good gustative qualities.
(§7) The values presented in table 2 correspond to fermentation times in days for each form.
(§8) The values presented in table 3 correspond to the volatile acidity measured at the end of fermentation by the Duclaux-Gayon method, known to the person skilled in the art.

[3] = system: active dry yeast Uvaferm PM; experiment: as above
Experimental: as §1, §2, §3, §4, §5, §6, §7, §8

[4] = Airen must, 225 mg/l assimilable nitrogen
[5] = at end of fermentation, Duclaux-Gayon method

N.N.O=P(O)(O)O [Di-ammonia phosphate]
fermentation time, in rehydration medium ([1]; product added in rehydration medium): 280 h
fermentation time, at start of fermentation ([1]; product added to must at start of fermentation): 285 h

N.N.O=P(O)(O)O [Test no. 1]
fermentation time [2, 4]: 10 days
Volatile acidity [2, 5]: 0.48 g/L
fermentation time [3, 4]: 8 days
Volatile acidity [3, 5]: 0.33 g/L
